Results published in PubChem BioAssay AID1259407 (Chemical Carcinogenesis Research Information System (CCRIS), 2018).
The source made the active and inactive calls. No rule for the calls is given here.

Test system: CCRIS mutagenicity, Ames/micronucleus/aberration tests
Assay: CCRIS mutagenicity studies
[1] = Test System: AMES SALMONELLA TYPHIMURIUM, Strain/Indicator: TA100, Metabolic Activation: NONE, Method: PREINCUBATION
[2] = Test System: AMES SALMONELLA TYPHIMURIUM, Strain/Indicator: TA100, Metabolic Activation: RAT, LIVER, S-9, PCB, Method: PREINCUBATION
[3] = Test System: AMES SALMONELLA TYPHIMURIUM, Strain/Indicator: TA98, Metabolic Activation: NONE, Method: PREINCUBATION
[4] = Test System: AMES SALMONELLA TYPHIMURIUM, Strain/Indicator: TA1535, Metabolic Activation: NONE, Method: PREINCUBATION
[5] = Test System: AMES SALMONELLA TYPHIMURIUM, Strain/Indicator: TA98, Metabolic Activation: NONE, Method: STANDARD PLATE
[6] = Test System: AMES SALMONELLA TYPHIMURIUM, Strain/Indicator: TA100, Metabolic Activation: NONE, Method: STANDARD PLATE
[7] = Test System: AMES SALMONELLA TYPHIMURIUM, Strain/Indicator: TA1535, Metabolic Activation: NONE, Method: STANDARD PLATE
[8] = Test System: AMES SALMONELLA TYPHIMURIUM, Strain/Indicator: TA1537, Metabolic Activation: NONE, Method: STANDARD PLATE
[9] = Test System: AMES SALMONELLA TYPHIMURIUM, Strain/Indicator: TA98, Metabolic Activation: S-9, Method: STANDARD PLATE
[10] = Test System: AMES SALMONELLA TYPHIMURIUM, Strain/Indicator: TA100, Metabolic Activation: S-9, Method: STANDARD PLATE

With Cc1cccc(NO)c1C the mutagenic call [1] was “active; positive” and the mutagenic call [2] was “active; positive”.
For Oc1ccc(Cl)cc1Sc1cc(Cl)ccc1O, the mutagenic call (Test System: AMES SALMONELLA TYPHIMURIUM, Strain/Indicator: TA97, Metabolic Activation: HAMSTER, LIVER, S-9, AROCLOR 1254 (10 OR 30%), Method: PREINCUBATION) was “inactive; negative”, the mutagenic call (Test System: AMES SALMONELLA TYPHIMURIUM, Strain/Indicator: TA97, Metabolic Activation: NONE, Method: PREINCUBATION) was “inactive; negative” and the mutagenic call (Test System: AMES SALMONELLA TYPHIMURIUM, Strain/Indicator: TA97, Metabolic Activation: RAT, LIVER, S-9, AROCLOR 1254 (10 OR 30%), Method: PREINCUBATION) was “inactive; negative”. The mutagenic call (Test System: AMES SALMONELLA TYPHIMURIUM, Strain/Indicator: TA98, Metabolic Activation: HAMSTER, LIVER, S-9, AROCLOR 1254 (10 OR 30%), Method: PREINCUBATION) was “inactive; negative”, the mutagenic call [3] was “inactive; negative” and the mutagenic call (Test System: AMES SALMONELLA TYPHIMURIUM, Strain/Indicator: TA98, Metabolic Activation: RAT, LIVER, S-9, AROCLOR 1254 (10 OR 30%), Method: PREINCUBATION) was “inactive; negative”. For the same compound, the mutagenic call (Test System: AMES SALMONELLA TYPHIMURIUM, Strain/Indicator: TA100, Metabolic Activation: HAMSTER, LIVER, S-9, AROCLOR 1254 (10 OR 30%), Method: PREINCUBATION) was “inactive; negative”, the mutagenic call [1] was “inactive; negative” and the mutagenic call (Test System: AMES SALMONELLA TYPHIMURIUM, Strain/Indicator: TA100, Metabolic Activation: RAT, LIVER, S-9, AROCLOR 1254 (10 OR 30%), Method: PREINCUBATION) was “inactive; negative”. The mutagenic call (Test System: AMES SALMONELLA TYPHIMURIUM, Strain/Indicator: TA1535, Metabolic Activation: HAMSTER, LIVER, S-9, AROCLOR 1254 (10 OR 30%), Method: PREINCUBATION) was “inactive; negative”, the mutagenic call [4] was “inactive; negative” and the mutagenic call (Test System: AMES SALMONELLA TYPHIMURIUM, Strain/Indicator: TA1535, Metabolic Activation: RAT, LIVER, S-9, AROCLOR 1254 (10 OR 30%), Method: PREINCUBATION) was “inactive; negative”.
For NCCNCCNCCNCCN, the mutagenic call [3] was “active; positive”, the mutagenic call [5] was “inactive; negative” and the mutagenic call (Test System: AMES SALMONELLA TYPHIMURIUM, Strain/Indicator: TA98, Metabolic Activation: RAT, LIVER, S-9, AROCLOR 1254, Method: STANDARD PLATE) was “inactive; negative”. For the same compound, the mutagenic call (Test System: AMES SALMONELLA TYPHIMURIUM, Strain/Indicator: TA98, Metabolic Activation: RAT, LIVER, S-9, PCB, Method: PREINCUBATION) was “inactive; negative”, the mutagenic call (Test System: AMES SALMONELLA TYPHIMURIUM, Strain/Indicator: TA100, Metabolic Activation: HAMSTER, LIVER, S-9, AROCLOR 1254 (10%), Method: PREINCUBATION) was “active; positive” and the mutagenic call [1] was “active; positive”. The mutagenic call [6] was “inactive; negative”, the mutagenic call (Test System: AMES SALMONELLA TYPHIMURIUM, Strain/Indicator: TA100, Metabolic Activation: RAT, LIVER, S-9, AROCLOR 1254 (10%), Method: PREINCUBATION) was “active; positive” and the mutagenic call (Test System: AMES SALMONELLA TYPHIMURIUM, Strain/Indicator: TA100, Metabolic Activation: RAT, LIVER, S-9, AROCLOR 1254, Method: STANDARD PLATE) was “inactive; negative”. For the same compound, the mutagenic call [2] was “inactive; negative”, the mutagenic call [4] was “inactive; negative” and the mutagenic call [7] was “inactive; negative”. The mutagenic call (Test System: AMES SALMONELLA TYPHIMURIUM, Strain/Indicator: TA1535, Metabolic Activation: RAT, LIVER, S-9, AROCLOR 1254, Method: STANDARD PLATE) was “inactive; negative”, the mutagenic call (Test System: AMES SALMONELLA TYPHIMURIUM, Strain/Indicator: TA1537, Metabolic Activation: HAMSTER, LIVER, S-9, AROCLOR 1254 (10%), Method: PREINCUBATION) was “inactive; negative” and the mutagenic call (Test System: AMES SALMONELLA TYPHIMURIUM, Strain/Indicator: TA1537, Metabolic Activation: NONE, Method: PREINCUBATION) was “inactive; negative”. The mutagenic call [8] was “inactive; negative”, the mutagenic call (Test System: AMES SALMONELLA TYPHIMURIUM, Strain/Indicator: TA1537, Metabolic Activation: RAT, LIVER, S-9, AROCLOR 1254 (10%), Method: PREINCUBATION) was “inactive; negative” and the mutagenic call (Test System: AMES SALMONELLA TYPHIMURIUM, Strain/Indicator: TA1537, Metabolic Activation: RAT, LIVER, S-9, AROCLOR 1254, Method: STANDARD PLATE) was “inactive; negative”. For the same compound, the mutagenic call (Test System: AMES SALMONELLA TYPHIMURIUM, Strain/Indicator: TA1538, Metabolic Activation: NONE, Method: STANDARD PLATE) was “inactive; negative”, the mutagenic call (Test System: AMES SALMONELLA TYPHIMURIUM, Strain/Indicator: TA1538, Metabolic Activation: RAT, LIVER, S-9, AROCLOR 1254, Method: STANDARD PLATE) was “inactive; negative” and the mutagenic call (Test System: CHINESE HAMSTER OVARY, Strain/Indicator: CHO (HGPRT)/6-THIOGUANINE, Metabolic Activation: NONE) was “inactive; negative”. For the same compound, the mutagenic call (Test System: CHINESE HAMSTER OVARY, Strain/Indicator: CHO (HGPRT)/6-THIOGUANINE, Metabolic Activation: RAT, LIVER, S-9, AROCLOR 1254) was “inactive; negative” and the mutagenic call (Test System: UDS RAT HEPATOCYTES, Strain/Indicator: THY INCORP, Metabolic Activation: NONE, Method: SCINTILLATION SPECTROMETRY) was “active; positive”.
CC(=O)c1cc(O)c(C(C)C)c2cc(C)c(-c3c(C)cc4c(C(C)C)c(O)c(O)c(C=O)c4c3O)c(O)c12 was tested, and the mutagenic call (Test System: AMES SALMONELLA TYPHIMURIUM, Strain/Indicator: TA97A, Metabolic Activation: S-9, Method: STANDARD PLATE) was “inactive; negative”, the mutagenic call [9] was “inactive; negative” and the mutagenic call [10] was “inactive; negative”. The mutagenic call (Test System: AMES SALMONELLA TYPHIMURIUM, Strain/Indicator: TA102, Metabolic Activation: S-9, Method: STANDARD PLATE) was “inactive; negative”.
OCc1ccc2c(c1)-c1cccc3cccc-2c13 was tested, and the mutagenic call [5] was “inactive; negative” and the mutagenic call [6] was “active; positive”.
For C=COc1ccc([N+](=O)[O-])cc1, the mutagenic call (Test System: AMES SALMONELLA TYPHIMURIUM, Strain/Indicator: TA100(NR), Metabolic Activation: MOUSE, LIVER, S-13, Method: STANDARD PLATE) was “active; positive”, the mutagenic call (Test System: AMES SALMONELLA TYPHIMURIUM, Strain/Indicator: TA100(NR), Metabolic Activation: NONE, Method: PREINCUBATION) was “inactive; negative” and the mutagenic call (Test System: AMES SALMONELLA TYPHIMURIUM, Strain/Indicator: TA100(NR), Metabolic Activation: NONE, Method: STANDARD PLATE) was “inactive; negative”. For the same compound, the mutagenic call (Test System: AMES SALMONELLA TYPHIMURIUM, Strain/Indicator: TA100(NR), Metabolic Activation: RAT, LIVER, S-9, PCB, Method: PREINCUBATION) was “active; positive”, the mutagenic call (Test System: AMES SALMONELLA TYPHIMURIUM, Strain/Indicator: TA100, Metabolic Activation: MOUSE, LIVER, S-13, Method: STANDARD PLATE) was “active; positive” and the mutagenic call [1] was “active; positive”. The mutagenic call [6] was “active; positive”, the mutagenic call [2] was “active; positive” and the mutagenic call (Test System: AMES SALMONELLA TYPHIMURIUM, Strain/Indicator: TA1535, Metabolic Activation: MOUSE, LIVER, S-13, Method: STANDARD PLATE) was “active; positive”. For the same compound, the mutagenic call [7] was “inactive; negative”.
With COc1cc(OC)c2c(c1)O[C@@H]1OC=C[C@H]21 the mutagenic call [3] was “inactive; negative”, the mutagenic call (Test System: AMES SALMONELLA TYPHIMURIUM, Strain/Indicator: TA98, Metabolic Activation: RAT, LIVER, S-9, AROCLOR 1254, Method: PREINCUBATION) was “active; positive” and the mutagenic call [1] was “active; positive”. For the same compound, the mutagenic call (Test System: AMES SALMONELLA TYPHIMURIUM, Strain/Indicator: TA100, Metabolic Activation: RAT, LIVER, S-9, AROCLOR 1254, Method: PREINCUBATION) was “active; positive”.
O=[N+]([O-])c1c2c3c(ccc4cccc(c43)CC2)c2ccccc12 was tested, and the mutagenic call [5] was “active; positive” and the mutagenic call [6] was “inactive; negative”.
For O=C(CCl)Nc1snc2ccc(Cl)cc12, the mutagenic call [5] was “inactive; negative”, the mutagenic call [9] was “active; positive” and the mutagenic call [6] was “inactive; negative”. For the same compound, the mutagenic call [10] was “active; positive”, the mutagenic call [7] was “inactive; negative” and the mutagenic call (Test System: AMES SALMONELLA TYPHIMURIUM, Strain/Indicator: TA1535, Metabolic Activation: S-9, Method: STANDARD PLATE) was “inactive; negative”. For the same compound, the mutagenic call [8] was “active; positive” and the mutagenic call (Test System: AMES SALMONELLA TYPHIMURIUM, Strain/Indicator: TA1537, Metabolic Activation: S-9, Method: STANDARD PLATE) was “active; positive”.
